# Legend:
# MgrA [1] = biological target: T1, MgrA (Staphylococcus aureus, UniProt P0C1S0); assay: intrinsic fluorescence quenching (ex […] nm), Stern-Volmer, linear regression; assay type: binding; details: PBS, MgrA 2 nM; static quenching
# T1 construct: homodimer in nature
# MgrA [2] = biological target: T1, MgrA; assay: fluorescence anisotropy, inhibition of MgrA binding to DNA probe; assay type: biochemical
# MgrA [3] = biological target: T1, MgrA; assay: thermal shift assay (Sypro Orange); assay type: binding; details: Tm is lowered by the compound; MgrA to Mo-A 1:10 molar ratio, 10 mM Tris, 150 mM NaCl, pH 7.5
# T1 sequence (P0C1S0 2-147): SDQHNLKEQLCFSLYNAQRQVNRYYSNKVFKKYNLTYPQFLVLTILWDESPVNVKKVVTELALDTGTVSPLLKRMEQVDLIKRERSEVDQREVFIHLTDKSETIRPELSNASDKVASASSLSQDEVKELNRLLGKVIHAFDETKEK
structure (smiles),measurement,setting,value
Cc1c(O)c(C)c2c(c1O)C(=O)[C@H](Cc1ccc3c(c1)OCO3)CO2 [methylophiopogonanone A],KA,MgrA [1],62500 L/mol
same,IC50,MgrA [2],95.9 µM
same,∆Tm (decrease),MgrA [3],> 3 °C

# — publication PMC10899606, “Thwarting resistance: MgrA inhibition with methylophiopogonanone a unveils a new battlefront against S. aureus” (NPJ Biofilms and Microbiomes, 2024)
